The structures appear in SMILES notation.

The first test addresses T1, thrombin (THR) (Homo sapiens, UniProt P00734).
T1 construct: purchased Sigma-Aldrich
Kind of test: THR inhibitory activity assay (chromogenic substrate S-2238, absorbance at 405 nm). The class given is biochemical. Particulars: in vitro enzymatic activity assay.
Procedure: (§1) A stock solution of THR (125 U/mL) was prepared by dissolving 4.16 mg of THR in 1.0 mL of PBS. A stock solution of FXa (0.5 IU/mL) was prepared by dissolving 5.0 mg of FXa in 1.0 mL of PBS. Stock solutions of S-2238 (2 mg/mL) and S-2765 (2.5 mg/mL) were prepared in PBS. The DC extract samples (10 mg/mL) were prepared in a PBS buffer and diluted to 5.0 and 2.5 mg/mL as necessary.
(§2) THR and FXa inhibitory activity assays were performed with an iMark™ Microplate Absorbance Reader (Bio-Rad Laboratories, Inc., Hercules, CA, USA). A DC extract solution of 50 μL and a 50 μL THR solution were mixed and incubated for 10 min at 37 °C. Subsequently, a 100 μL S-2238 (2 mg/mL) solution as the chromogenic substrate was added to start the reaction in the microplate reader. The absorbance was monitored at 405 nm every 30 s for 10 min, and each group was measured three times. […] Except for the enzyme solution and chromogenic substrate, the procedure for assessing the FXa inhibitory activity was exactly the same as for THR. The inhibition rate (%) of THR and FXa was calculated using Formula (1). (1) I(%)=[(dA/dt)blank−(dA/dt)sample]/(dA/dt)blank where I(%) represents the % of inhibition, and (dA/dt)blank and (dA/dt)sample represent the reaction rate of the control and experimental group, respectively. The results were expressed as the mean ± standard deviation (SD) of three experiments.
`O=C(/C=C/c1ccc(O)c(O)c1)O[C@@H]1C[C@](O)(C(=O)O)C[C@@H](O)[C@H]1O` [Chlorogenic acid] returned an IC50 of 185 µM.
The same measure, in the same setting: in the case of `CCC/C=C1\OC(=O)C2=C1CCC=C2` [Z-ligustilide] it was 1460 µM.

The target of a further test is factor Xa (FXa) (Homo sapiens, UniProt P00742). As to the kind of experiment: FXa inhibitory activity assay (chromogenic substrate S-2765, absorbance at 405 nm). The class given is biochemical. To be noted: in vitro enzymatic activity assay.
Sequence of factor Xa (FXa) (P00742 235-488 limits assumed): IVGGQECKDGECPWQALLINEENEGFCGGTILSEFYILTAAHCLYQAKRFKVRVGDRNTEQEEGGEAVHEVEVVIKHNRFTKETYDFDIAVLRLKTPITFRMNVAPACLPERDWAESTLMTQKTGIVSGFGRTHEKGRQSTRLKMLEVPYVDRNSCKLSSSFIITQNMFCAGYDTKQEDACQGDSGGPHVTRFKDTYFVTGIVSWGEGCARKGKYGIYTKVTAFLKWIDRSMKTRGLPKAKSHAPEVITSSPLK
Sequence of factor Xa (FXa) (P00742 41-179 partner limits assumed): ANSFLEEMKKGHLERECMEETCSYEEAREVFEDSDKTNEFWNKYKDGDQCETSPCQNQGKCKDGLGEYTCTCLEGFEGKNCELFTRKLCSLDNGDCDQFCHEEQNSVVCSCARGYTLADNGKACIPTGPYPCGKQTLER
Procedure: as §1, §2
In the case of `O=C(O)/C=C/c1ccc(O)c(O)c1` [Caffeic acid], the IC50 was 3790 µM.
Same read-out and setting: in the case of `Cc1coc2c1C(=O)C(=O)c1c-2ccc2c1CCCC2(C)C` [Tanshinone IIA] it was 138 µM; in that of `COc1cc(/C=C/C(=O)O)ccc1O` [Ferulic acid], 2490 µM.
Compound `Cc1coc2c1C(=O)C(=O)c1c-2ccc2c(C)cccc12` [Tanshinone I] returned an IC50 of 113 µM.

A word on the IC50: it is the concentration needed to halve the response being measured. The low end stands for greater potency, the high end for weaker potency.

The values are drawn from paper PMC8658787, “Screening of Potential Thrombin and Factor Xa Inhibitors from the Danshen–Chuanxiong Herbal Pair through a Spectrum–Effect Relationship Analysis” (Molecules, 2021).
